Changes are numbered by the printed parent chain.
Assays:
Experiment in all cases: Mutant β-galactosidase activity in model cells, 4 days culture
Format in all cases: cell-based
[1] = molecular target: T1, human mutant β-galactosidase I51T (Homo sapiens, UniProt P16278, I51T)
T1 construct: expressed in transfected cells; host or cells: SV40-immortalized skin fibroblasts of a β-galactosidase-deficient knockout mouse
T1 sequence (P16278 29-677 I51T): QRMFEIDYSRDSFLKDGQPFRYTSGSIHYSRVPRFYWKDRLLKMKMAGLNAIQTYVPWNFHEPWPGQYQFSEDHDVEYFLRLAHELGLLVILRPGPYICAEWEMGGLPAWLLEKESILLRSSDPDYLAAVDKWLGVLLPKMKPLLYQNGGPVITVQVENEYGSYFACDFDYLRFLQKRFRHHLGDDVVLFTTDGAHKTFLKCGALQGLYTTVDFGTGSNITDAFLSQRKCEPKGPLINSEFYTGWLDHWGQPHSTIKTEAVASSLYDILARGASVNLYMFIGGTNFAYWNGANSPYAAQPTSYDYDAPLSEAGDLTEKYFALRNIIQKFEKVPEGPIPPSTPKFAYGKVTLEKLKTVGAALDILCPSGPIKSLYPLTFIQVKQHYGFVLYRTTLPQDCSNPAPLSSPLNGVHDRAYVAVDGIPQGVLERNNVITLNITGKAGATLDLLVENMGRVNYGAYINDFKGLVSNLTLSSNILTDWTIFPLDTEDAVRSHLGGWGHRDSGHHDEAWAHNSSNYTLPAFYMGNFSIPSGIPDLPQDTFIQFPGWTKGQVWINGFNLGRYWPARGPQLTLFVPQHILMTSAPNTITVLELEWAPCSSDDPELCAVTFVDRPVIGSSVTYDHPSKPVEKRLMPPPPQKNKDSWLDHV
Text: (§1) Cultured skin fibroblasts of a β-galactosidase-deficient knockout mouse was immortalized by introducing an SV40 viral gene, and enzyme genes integrated into pSV2neo and an expression vector were also introduced simultaneously, thereby establishing a model cell (Brain Dev., 23(5), 284-287, 2001). The genes used are human normal (GP8) and mutant β-galactosidase gene Y316C, G123R (infantile GM1-gangliosidosis), R201C (juvenile GM1-gangliosidosis), 151T, T82M, R201H, R263S, R457Q (adult GM1-gangliosidosis), W273L, Y83H, R482H and R482C (Morquio-B disease) (Hum. Genet., 93(2), 109-114, 1994).
(§2) As a control substance, 0.5 mM N-(n-butyl)-deoxygalactonojirimycin (NB-DGJ: The Journal of Biological Chemistry, 269, 27108-27114 (1994)) was used, and the substance 18 of the present invention was used in an amount of 0.2 μM.
(§3) Specifically, after culturing the model cell for 4 days using a cell culture medium (10% FCS DMEM) containing the substance 18 of the present invention, the resulting cells were recovered and diluted such that the amount of protein in the suspension became a predetermined level, and then enzyme activity in the diluted suspension was measured. Using 4-methylumbelliferyl-β-D-galactopyranoside as the fluorescent substrate, the enzyme activity during 30 minutes was measured at 37° C.

[2] = molecular target: T2, human mutant β-galactosidase P263S (Homo sapiens, UniProt P16278, P263S)
T2 construct: expressed in transfected cells; host or cells: SV40-immortalized skin fibroblasts of a β-galactosidase-deficient knockout mouse
T2 sequence (P16278 29-677 P263S): T1 sequence (P16278 29-677 I51T) with T23I, P235S
Text: as §1, §2, §3

[3] = molecular target: T3, human mutant β-galactosidase Y83H (Homo sapiens, UniProt P16278, Y83H)
T3 construct: expressed in transfected cells; host or cells: SV40-immortalized skin fibroblasts of a β-galactosidase-deficient knockout mouse
T3 sequence (P16278 29-677 Y83H): T1 sequence (P16278 29-677 I51T) with T23I, Y55H
Text: as §1, §2, §3

enzyme activity, Control ([1]; transferred gene I51T, control substance 0.5 mM NB-DGJ)	enzyme activity, Control ([2]; transferred gene P263S, control substance 0.5 mM NB-DGJ)	enzyme activity, Control ([3]; transferred gene Y83H, control substance 0.5 mM NB-DGJ)	SMILES	Relative ratio (×100%) ([1]; I51T, substance 18 vs control)	enzyme activity ([1]; transferred gene I51T, 0.2 μM, 4 days)	Relative ratio (×100%) ([2]; P263S, substance 18 vs control)	enzyme activity ([2]; transferred gene P263S, 0.2 μM, 4 days)	enzyme activity increased in comparison with the control ([3]; Y83H, 0.2 μM) [%]	Relative ratio (×100%) ([3]; Y83H, substance 18 vs control)	enzyme activity ([3]; transferred gene Y83H, 0.2 μM, 4 days)
1.42	0.02	8.89	CCCCN1C[C@H](O)[C@@H](O)[C@@H](O)[C@H]1CO [Control, N-(n-butyl)-deoxygalactonojirimycin, reference compound]	–	–	–	–	–	–	–
–	–	–	CCCCCCCCN[C@@H]1C=C(CO)[C@H](O)C(O)[C@@H]1O (stereo partly drawn) [Substance 18, N-octyl-5a-carba-α-L-arabino-hexo-5(5a)-enopyranosylamine]	3.08 ×100%	4.37	6.58 ×100%	0.12	≥ 150	2.27 ×100%	20.16

— patent US8211945B2, “Carba-sugar amine derivative and glycolipid metabolic disorder treating agent containing the same as active ingredient” (Seikagaku Corporation, priority 2001, dated 2012)
